Like-named read-outs stand apart in the source and are kept apart here.
Assays:
[1] = Caco-2 passive permeability; type: in vitro ADME; details: human, Caco-2, pH 7.4; read-out: Caco-2 Papp (intrinsic passive permeability)
Source text: Passive permeability (Papp) characterizes the rate across the cell membrane due to passive diffusion. A high permeability enables the rapid establishment of equilibrium among plasma, CSF, and brain compartments. Except for passive permeability, sufficient unbound drug concentration in the brain is governed by efflux transporters, including P-gp (MDR1, ABCB1) and BCRP, at BBB. Efflux ratio (ER) reflects the liability of a compound to be pumped out of the brain by BBB efflux transporters, which is indicated by the distribution disequilibrium between the plasma and the brain compartments.
Again, DZD1516 and DZ2678 permeability were evaluated in a bi-directional assay in Caco-2 cells at 5 μM. The efflux ratio of DZD1516 and DZ2678, with or without novobiocin (a selective BCRP inhibitor), determined whether DZD1516 or DZ2678 was transported via BCRP in Caco-2 cells. The apical-to-basolateral (A-B) and basolateral-to-apical (B-A) transport of DZD1516/DZ2678 in HBSS (25 mM HEPES, pH 7.4) with 0.1% BSA was measured across Caco-2 cell monolayers in the absence and presence of BCRP inhibitor, novobiocin (30 μM). […] Transport of 5 µM DZD1516/DZ2678 and control compound was determined by quantifying substrate concentration in the incubation medium of the donor compartment at the beginning of the incubation period and both donor and receiver compartments at the end of the incubation period. […]

[2] = system: 121 recombinant human kinases; assay: Kinome selectivity profile, 121-kinase panel; type: biochemical; details: 1 µM DZD1516, Km ATP
Experimental: In vitro profiling of the 121-recombinant kinase panel was performed at Eurofins UK Ltd (Dundee, UK). In brief, recombinant kinases were incubated within an appropriate buffer containing peptide substrate and radiolabelled γ-^33P-ATP together with the presence or absence of the required compound concentration. The reaction was initiated by adding ATP/Mg^2+ mix. After incubation for 40 minutes at room temperature, the reaction was stopped by adding 3% phosphoric acid solution. A portion of the reaction mix was spotted onto P30 filtermat to trap peptide and washed three times for 5 minutes with phosphoric acid to remove non-specific γ-^33P-ATP. The substrate phosphorylation was then measured by scintillation counting, which determined the level of kinase activity inhibition compared to control reactions. Percentage inhibition data for each kinase was mapped to the kinome tree (www.kinhub.org).

BT474C1 cells = assay: Cell proliferation assay (CellTiter-Glo), BT474C1; type: cell-based, human; details: Homo sapiens; BT474C1, 72 hrs
Experimental: BT474C1-Luci Mono1 cells were seeded in 384-well plates at 1500 cells/well in DMEM medium containing 10% FBS and 1 mM Oxaloacetic acid (OAA). A431 cells were seeded in 384-well plates at 1,000 cells/well in DMEM medium containing 10% FBS. After overnight incubation, cells were treated with compounds at various concentrations for 3 days. Then cell viability was measured using a CellTiter-Glo Luminescent Cell Viability Assay from Promega Corp. according to the manufacturer's instructions.

CYP P450s = assay: CYP P450 inhibition and induction; type: in vitro ADME; details: in vitro
[3] = Phase 1 study: CSF penetration (Kp,uu,CSF); type: in vivo, human; details: for Kp uu: human, oral
Experimental: Blood samples for PK analyses of DZD1516 and DZ2678 were collected on C0D1. Samples were obtained at pre-dose and at 0.5, 1, 1.5, 2, 2.5, 3, 4, 6, 8, 10, 24, 48, and 72 h after the dose, while for C1D15, samples were obtained at pre-dose and 0.5, 1, 1.5, 2, 2.5, 3, 4, 6, 8, and 10 h after the dose. CSF samples for PK analyses of DZD1516 and its metabolite DZ2678 were collected from patients with BM (C1D15) and LM (C1D15 and C3D1) at steady state (Additional file 1). Plasma and CSF samples were analyzed by LabCorp Madison laboratory (Madison, WI, USA) and LabCorp Shanghai laboratory (Shanghai, China) using a validated LC/MS/MS bioanalytical method to determine DZD1516 and DZ2678 concentrations. Non-compartmental PK analysis was performed using Phoenix WinNonlin (Certara USA Inc., version 8.3.3.33).

wild-type EGFR = biological target: T1, wild-type EGFR (Homo sapiens, UniProt P00533); assay: pEGFR MSD assay in A431 cells; type: cell-based
T1 construct: endogenous in cells; host or cells: A431
T1 sequence (P00533 25-1210): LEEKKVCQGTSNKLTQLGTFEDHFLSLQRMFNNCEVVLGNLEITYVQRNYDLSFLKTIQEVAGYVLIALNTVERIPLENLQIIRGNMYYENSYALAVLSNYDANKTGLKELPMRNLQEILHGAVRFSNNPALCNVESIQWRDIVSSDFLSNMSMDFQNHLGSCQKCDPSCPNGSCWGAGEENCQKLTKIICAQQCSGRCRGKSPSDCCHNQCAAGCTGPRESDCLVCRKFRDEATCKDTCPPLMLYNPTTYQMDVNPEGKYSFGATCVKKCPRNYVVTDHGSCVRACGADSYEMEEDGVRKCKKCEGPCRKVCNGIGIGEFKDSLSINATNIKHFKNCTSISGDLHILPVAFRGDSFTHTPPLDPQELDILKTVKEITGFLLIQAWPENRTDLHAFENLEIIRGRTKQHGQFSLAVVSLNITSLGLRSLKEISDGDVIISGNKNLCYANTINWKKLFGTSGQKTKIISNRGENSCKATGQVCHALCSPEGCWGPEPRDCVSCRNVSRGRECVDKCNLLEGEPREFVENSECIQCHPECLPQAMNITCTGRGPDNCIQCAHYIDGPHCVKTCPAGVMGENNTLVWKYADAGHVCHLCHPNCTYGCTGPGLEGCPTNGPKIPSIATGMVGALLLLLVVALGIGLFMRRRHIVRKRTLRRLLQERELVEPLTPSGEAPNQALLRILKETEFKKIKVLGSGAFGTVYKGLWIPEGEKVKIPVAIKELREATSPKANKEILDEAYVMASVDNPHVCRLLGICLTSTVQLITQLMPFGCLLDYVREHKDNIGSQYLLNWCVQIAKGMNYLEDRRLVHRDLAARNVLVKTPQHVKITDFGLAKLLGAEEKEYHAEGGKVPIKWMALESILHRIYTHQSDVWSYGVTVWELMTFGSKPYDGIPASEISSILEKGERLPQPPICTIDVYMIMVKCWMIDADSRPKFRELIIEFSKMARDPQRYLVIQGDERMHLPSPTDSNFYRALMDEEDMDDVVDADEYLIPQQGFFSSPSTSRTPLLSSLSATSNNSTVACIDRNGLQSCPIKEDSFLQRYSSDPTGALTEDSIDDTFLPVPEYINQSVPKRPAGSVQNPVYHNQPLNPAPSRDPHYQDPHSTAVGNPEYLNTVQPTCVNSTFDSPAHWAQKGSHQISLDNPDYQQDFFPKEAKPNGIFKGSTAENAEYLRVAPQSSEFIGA
Experimental: A431 and BT474C1-Luci Mono1 cells were seeded in 96-well plates at 20,000 cells/well in DMEM medium containing 1% FBS. After overnight incubation, all cells were treated with compounds at a series of concentrations for 4 hrs. For A431 cell line, an extra stimulation with recombinant human EGF (100 ng/ml for 10 minutes) is applied to activate wild-type EGFR following compound treatment. pEGFR^Y1068 and total EGFR levels were measured by an electro chemiluminescent method (MULTI-SPOT®96 4-Spot HB Prototype EGFR Triplex […]: pEGFR (Y1068), Total EGFR; MESO SCALE DISCOVERY, Cat# N45ZB-1) with MSD SECTOR® Imager, which outputs the ratio of pEGFR/total EGFR for each well. pHER2^Y1248 and total HER2 levels were measured similarly using pHER2 (Y1248) Assay Whole Cell Lysate Kit (MESO SCALE DISCOVERY, Cat# K151CLD-3). The percentage of inhibition was calculated as: % Inhibition = 100 x [1 - (ratio of the sample well - ratio of Min ctrl well)/ (ratio of Max ctrl well - ratio of Min ctrl well)].

## COc1cc(O[C@H]2CCN(C)CC2(F)F)c2c(Nc3ccc(Oc4ccn5ncnc5c4)c(C)c3)ncnc2c1 [DZD1516]
[1]
  Papp at 120 min, 5 μM: 90 ×10⁻⁶ cm/s
[2]
  number of kinases inhibited > 50%: 12
BT474C1 cells
  GI50: 20 nM
CYP P450s
  CYP P450s inhibitor and inducer: not a CYP P450s inhibitor and inducer
[3]; 50 mg, subject 1
  CSF conc: 4.89 nmol/L
  Free plasma conc: 5.35 nM
[3]; 50 mg, subject 2
  CSF conc: 10.2 nmol/L
  Free plasma conc: 6.28 nM
[3]; 100 mg, subject 3
  CSF conc: 39.3 nmol/L
  Free plasma conc: 13.4 nM
[3]; 100 mg, subject 4
  CSF conc: 15.5 nmol/L
  Free plasma conc: 4.95 nM
[3]; 100 mg, subject 5
  CSF conc: 12.7 nmol/L
  Free plasma conc: 4.84 nM
[3]; 200 mg, subject 6
  CSF conc: 18.3 nmol/L
  Free plasma conc: 13.9 nM
[3]; 250 mg, subject 7
  CSF conc: 27.9 nmol/L
  Free plasma conc: 24.0 nM
[3]; 250 mg, subject 8
  CSF conc: 54.2 nmol/L
  Free plasma conc: 17.4 nM
[3]; CSF (relative to unbound plasma), patients with CNS metastases, read-out: mean Kp,uu,CSF
  Kp uu: 2.1
[3]; CSF / free plasma, 100 mg, subject 4, read-out: Kp,uu,CSF
  Kp uu: 3.13
[3]; CSF / free plasma, 100 mg, subject 5, read-out: Kp,uu,CSF
  Kp uu: 2.63
[3]; CSF / free plasma, 200 mg, subject 6, read-out: Kp,uu,CSF
  Kp uu: 1.31
[3]; CSF / free plasma, 250 mg, subject 7, read-out: Kp,uu,CSF
  Kp uu: 1.16
[3]; CSF to free plasma, 50 mg, subject 1, read-out: Kp,uu,CSF
  Kp uu: 0.915
[3]; CSF to free plasma, 50 mg, subject 2, read-out: Kp,uu,CSF
  Kp uu: 1.62
[3]; CSF to free plasma, 100 mg, subject 3, read-out: Kp,uu,CSF
  Kp uu: 2.94
[3]; CSF to free plasma, 250 mg, subject 8, read-out: Kp,uu,CSF
  Kp uu: 3.13
wild-type EGFR; A431, 4 hrs treatment, EGF stimulation
  IC50: 1460 nM
wild-type EGFR; pEGFR A431 vs pHER2 BT474C1
  selectivity against wild-type EGFR: greater than 300 fold

— article PMC10327353 (Breast Cancer Research : BCR, 2023)
